Results taken from ChEMBL document CHEMBL3886897, “Macrocyclic indole derivatives useful as hepatitis C virus inhibitors” (2016).

Legend:
[1] = molecular target: RNA-directed RNA polymerase (Hepacivirus hominis) (UniProt O39930)
[2] = molecular target: RNA-directed RNA polymerase (Hepacivirus hominis) (UniProt O39930); remark: listed apart in the source
[3] = molecular target: RNA-directed RNA polymerase (Hepacivirus hominis) (UniProt O39930); remark: listed apart in the source
[4] = molecular target: RNA-directed RNA polymerase (Hepacivirus hominis) (UniProt O39930); remark: listed apart in the source
[5] = molecular target: RNA-directed RNA polymerase (Hepacivirus hominis) (UniProt O39930); remark: listed apart in the source
[6] = molecular target: RNA-directed RNA polymerase (Hepacivirus hominis) (UniProt O39930); remark: listed apart in the source
[7] = molecular target: RNA-directed RNA polymerase (Hepacivirus hominis) (UniProt O39930); remark: listed apart in the source
[8] = molecular target: RNA-directed RNA polymerase (Hepacivirus hominis) (UniProt O39930); remark: listed apart in the source
[9] = molecular target: RNA-directed RNA polymerase (Hepacivirus hominis) (UniProt O39930); remark: listed apart in the source
[10] = molecular target: RNA-directed RNA polymerase (Hepacivirus hominis) (UniProt O39930); remark: listed apart in the source

RNA-directed RNA polymerase (Hepacivirus hominis), sequence (O39930 1-591): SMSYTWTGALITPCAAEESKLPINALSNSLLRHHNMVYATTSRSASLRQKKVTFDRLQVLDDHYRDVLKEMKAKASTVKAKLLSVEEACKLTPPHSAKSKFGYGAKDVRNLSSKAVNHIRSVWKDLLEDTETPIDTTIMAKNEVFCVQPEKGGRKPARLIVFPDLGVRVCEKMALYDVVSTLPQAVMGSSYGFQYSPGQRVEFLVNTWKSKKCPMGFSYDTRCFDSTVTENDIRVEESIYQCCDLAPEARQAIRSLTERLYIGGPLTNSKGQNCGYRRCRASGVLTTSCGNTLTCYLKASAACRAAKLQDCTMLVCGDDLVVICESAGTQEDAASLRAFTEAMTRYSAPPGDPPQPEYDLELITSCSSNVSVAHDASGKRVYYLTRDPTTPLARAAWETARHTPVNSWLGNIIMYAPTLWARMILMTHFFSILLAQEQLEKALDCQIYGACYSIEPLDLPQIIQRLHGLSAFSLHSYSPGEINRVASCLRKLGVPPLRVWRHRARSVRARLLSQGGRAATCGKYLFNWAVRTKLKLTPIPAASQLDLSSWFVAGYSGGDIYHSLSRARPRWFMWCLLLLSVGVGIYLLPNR

Structure (SMILES) | k off [2] [s⁻¹] | also measured
COc1ccc2c(c1)C=C1Cn3c-2c(C2CCCCC2)c2ccc(cc23)C(=O)NS(=O)(=O)N(C)CCOCCN(C)C1=O | 9e-05 | k off [1]: 0.022 s⁻¹; k off [3]: 0.00097 s⁻¹; k off [4]: 0.00013 s⁻¹; k off [5]: 0.00084 s⁻¹; k off [6]: 0.00015 s⁻¹; k off [7]: 0.0001 s⁻¹; k off [8]: 0.022 s⁻¹; k off [9]: 7.6e-05 s⁻¹; k off [10]: 0.00015 s⁻¹
COc1ccc2c(c1)C=C1Cn3c-2c(C2CCCCC2)c2ccc(cc23)C(=O)NS(=O)(=O)N(C(C)C)CCCCN(C)C1=O | 6.6e-05 | 
COc1ccc2c(c1)C=C1Cn3c-2c(C2CCCCC2)c2ccc(cc23)C(=O)NS(=O)(=O)NCCCCN(C)C1=O | 0.00031 | 
CN1CCCCCNC(=O)C2=Cc3ccc(Cl)cc3-c3c(C4CCCCC4)c4ccc(cc4n3C2)C(=O)NS1(=O)=O | 0.0038 | 
COc1ccc2c(c1)C(C)=C1Cn3c-2c(C2CCCCC2)c2ccc(cc23)C(=O)NS(=O)(=O)N(C)CCCCN(C)C1=O | 0.00016 | 
CN1CCCCN(C)S(=O)(=O)NC(=O)c2ccc3c(C4CCCCC4)c4n(c3c2)CC(=Cc2ccc(Cl)cc2-4)C1=O | 0.0037 | 
COc1ccc2c(c1)C=C1Cn3c-2c(C2CCCCC2)c2ccc(cc23)C(=O)NS(=O)(=O)N(C)CCCCN(C)C1=O | 4.8e-05 | 
COc1ccc2c(c1)C(C)=C1Cn3c-2c(C2CCCCC2)c2ccc(cc23)C(=O)NS(=O)(=O)N(C)CCOCCN(C)C1=O | 3.6e-05 | 
COc1ccc2c(c1)C=C1Cn3c-2c(C2CCCCC2)c2ccc(cc23)C(=O)NS(=O)(=O)N(C)CCCCNC1=O | 4.1e-05 | 
